Results taken from paper PMC12119673, “Apoptotic cell death induced by copper (II), manganese (II) and silver (I) complexes containing bridging dicarboxylate and 1,10-phenanthroline ligands: one of the multi-modes of anticancer activity?” (Biometals, 2025).
Like-named read-outs stand apart in the source and are kept apart here.

Assays:
Assay type in all cases: cell-based, human
MCF-12A cells = test: In vitro cytotoxicity assessment, alamar blue assay, 24-h exposure; conditions: for Decrease in activity towards MCF-12A cells relative to MCF-7 cells (selectivity): IC50 MCF-12A vs IC50 MCF-7, 24 h
Experimental: The MCF-7 (human breast cancer) and MCF-12A (non-tumourigenic human breast) cell lines were obtained from the Technological University Dublin (TUDublin, City Campus) internal cell bank and commercially from the American Type Culture Collection (ATCC), respectively. Both cell lines were cultured using Dulbecco’s Modified Eagle Medium/Nutrient Mixture F-12 Ham (DMEM-F12) (Sigma, Ireland) (Cat# D6421) media. The MCF-7 media was supplemented with 10% Foetal Bovine Serum (Sigma, Ireland) (Cat# F7524) and 1% L-Glutamine (Sigma, Ireland) (Cat# 592020C). The MCF-12A media was supplemented with 5% Equine Serum (Sigma, Ireland) (Cat# H0146) 1.25% L-Glutamine (Sigma, Ireland) (Cat# 592020C), 20 ng/ml Human Epidermal Growth Factor (Thermo Fisher Scientific, Ireland) (Cat# PHG0313), 0.01 mg/ml insulin (Thermo Fisher Scientific, Ireland)(Cat# 12585014) and 500 ng/ml hydrocortisone (Sigma, Ireland) (Cat# H0888). The cells were grown in T75 culture flasks (Sarstedt, Germany) (Cat# 83.3911.002) and were incubated in a 5% CO2 atmosphere at 37 ℃. The cells were monitored daily, and once 80–90% confluence was reached, they were subcultured with an enzymatic dissociation method using trypsin. Both cell lines were routinely subcultured for 1 week prior to beginning experimental work, to ensure the cells had adapted to the environment.
The MCF-7 and MCF-12A cells were seeded at a density of 1 × 10^4 in 96-well flat bottom plates (Sarstedt, Germany) (Cat# 83.3924) and incubated in a 5% CO2 atmosphere at 37 ℃ for 24 h prior to exposure to the complexes. Following the incubation period, the media was removed, and cells were washed with sterile phosphate-buffered saline (PBS). […] All agents were diluted in supplemented cell culture media, and the cells were exposed to a concentration range of 0.5 μM–100 μM for 24 h in the conditions outlined previously. Following the exposure period, the drug-containing media was removed, and cells were washed three times with PBS, ensuring complete removal of the test agents. A 5% working solution of Alamar Blue (Thermo Fisher Scientific, Ireland) (Cat# DAL1100) was prepared in dark conditions using unsupplemented cell culture media. 100 μl of the solution was added to each well, and the cells were incubated for 3 h. Following incubation, absorbance values were obtained using a Varioskan Lux (Thermo Scientific, USA) at 570 nm and 600 nm wavelengths. Each exposure was carried out in triplicate plates and was repeated three independent times.
The software packages Microsoft^Ⓡ Excel (USA) and GraphPad Prism (Ver. 10.0.3) (GraphPad, USA) were used to analyse the alamar blue data. The treated sample values were first normalised to the negative control values. After normalisation, the mean and standard deviations (SD) were established using Microsoft^Ⓡ Excel. The statistical analysis package GraphPad was then used to determine the IC25 and IC50 concentrations. […] A p value of 0.05 or lower is considered to be statistically significant.

[1] = tested on: apoptotic genes in MCF-12A cells; test: Apoptosis-related gene expression, qRT-PCR; conditions: IC25 concentration, 24 h, relative to negative control
Experimental: (§1) A broad scope of molecular targets involved in the apoptotic pathway were selected for analysis using qRT-PCR including initiators, mediators and inhibitors. These gene targets along with their cellular location and associated primer set are outlined in Table 2. Primer sets for each gene were designed using NCBI nucleotide sequences and the Primer3 application (Table 3). Once designed, the primers were synthesised by Sigma Aldrich, Ireland.
(§2) MCF-7 and MCF-12A cells were seeded at a density of 1 × 10^5 in T25 flasks and incubated for 24 h allowing for attachment. Following incubation, the seeding media was removed, and the cells were washed with PBS. […] Post-exposure, RNA was isolated from the cells. Tri-reagent^Ⓡ (Sigma, Ireland) (Cat# T9424) was added to the cells followed by centrifugation at 300 g for 5 min. The RNA was precipitated using chloroform, followed by centrifugation and washing of the pellet using 75% ethanol. The RNA was resuspended in 30 μl of nuclease-free water. The RNA was either used immediately for qRT-PCR or stored at −80 ℃. The RNA from each sample was quantified using the NanoDrop™ 2000 Spectrophotometer (Thermo Fisher Scientific, Ireland). The A260/A230 ratio was measured to ensure the purity of each sample. Prior to cDNA synthesis, all samples were adjusted to a concentration of 100 ng. The RNA was then reverse transcribed into cDNA using the Quanta Biosciences Kit (Quanta Biosciences, USA) (Cat# 95047). Using the SimpliAmp Thermal Cycler (Applied Biosystems; Thermo Fisher Scientific, Ireland), the following settings were applied: 5 min at 22 ℃, 30 min at 42 ℃, 5 min at 85 ℃; samples were then maintained in an indefinite hold at 4 ℃ prior to being used for quantitative real-time PCR. The cDNA templates were amplified and analysed using SYBR™ Green (Fisher Scientific, UK) (Cat#10187094). Using the 7500 fast Real-Time PCR System (Applied Biosystems, USA), the following thermal cycling setting were applied for amplification: Pre-Incubation (1 cycle) 95 ℃, 5 Minutes, 4.4 ℃ ramp; Amplification (45 cycles) 95 °C 10 s ramp 4.4 °C, 60 °C 10 s ramp 2.2 °C, 72 °C 10 s ramp 4.4 °C; Melting Curve (1 cycle) 95 °C 5 s ramp 4.4 °C, 65 °C 1 min ramp 2.2 °C, 97 °C continuous ramp 0.11 °C acquisition 10 per °C; Cooling (1 cycle) 40 °C 10 s ramp 1.5 °C. Two reference genes, actin and tubulin, were employed to determine the expression of the target genes. No template controls were included to confirm the absence of template contamination and auto-fluorescence. Each PCR plate contained three technical replicates per sample and gene target, with each experiment repeated three independent times using three individual biological replicates.
(§3) qRT-PCR data was analysed by first using the Vandesompele method to calculate the geometric mean of Ct values for the reference genes, actin and tubulin. These values were used for normalisation of the target gene expression values which were then calculated using the Livak and Schmittgen formula: 2^−ΔCt1(test)−ΔCt2(control) (Livak and Schmittgen [2001]; Vandesompele et al. [2002]).
(§4) The expression profiles (Fig. 4) display the log(2) transformed mean expression value for each gene target relative to the negative control. Expression values for each target were determined relative to the geometric means of reference genes. […] Each graph contains a threshold line, set at the value of one, this represents baseline expression levels of genes.

[2] = tested on: apoptotic genes in MCF-7 cells; test: Apoptosis-related gene expression, qRT-PCR; conditions: MCF-7, IC25 concentration, 24 h, relative to negative control
Experimental: as §1, §2, §3, §4

[3] = MCF-12A, 24-hour exposure, per one metal centre, mean ± S.D. (N=3)
[4] = MCF-12A, 24-hour exposure, per one metal centre, mean ± S.D. (N=3), read-out: IC50 calculated per one metal centre
[5] = MCF-12A, 24-h exposure, 25% reduction in metabolic activity, mean ± SD (N = 3)

O=C([O-])CCCCCCC(=O)[O-].[Cu+2].[Cu+2].[O-][Cl+3]([O-])([O-])[O-].[O-][Cl+3]([O-])([O-])[O-].c1cnc2c(c1)ccc1cccnc12.c1cnc2c(c1)ccc1cccnc12.c1cnc2c(c1)ccc1cccnc12.c1cnc2c(c1)ccc1cccnc12 [Complex 1, [Cu2(oda)(phen)4](ClO4)2]
Cytotoxic activity IC25 ± SD (MCF-12A cells): 4.86 ± 1.91 µM | IC50 (MCF-12A cells): 6.14 ± 0.37 µM | IC25 calculated per one metal centre (MCF-12A cells; [3]): 9.72 ± 3.82 µM | IC50 (MCF-12A cells; [4]): 12.3 ± 0.74 µM | Caspase gene expression (caspase-9, -8, -3) [1]: expressed caspase 8 | Pro-apoptotic gene expression (BID, BIM, BAD, BAX) [1]: upregulated expression of the gene encoding BH3-only protein BID | Caspase gene expression (caspase-9, -8, -3) [2]: expressing initiator caspase 9 | Pro-apoptotic gene expression (BID, BIM, BAD, BAX) [2]: upregulated expression of the gene encoding BH3-only protein BID

O=C([O-])CCCCCCC(=O)[O-].[Cu+2].c1cnc2c(c1)ccc1cccnc12.c1cnc2c(c1)ccc1cccnc12 [Complex 2, [Cu(oda)(phen)2]]
Cytotoxic activity IC25 ± SD (MCF-12A cells; [5]): 0.68 ± 0.13 µM | IC25 calculated per one metal centre (MCF-12A cells; [3]): 0.68 ± 0.13 µM | IC50 (MCF-12A cells; [4]): 1.65 ± 0.13 µM | Caspase gene expression (caspase-9, -8, -3) [1]: expressed caspase 8 | Pro-apoptotic gene expression (BID, BIM, BAD, BAX) [1]: upregulated expression of the gene encoding BH3-only protein BID | Caspase gene expression (caspase-9, -8, -3) [2]: expressing initiator caspase 9 | Pro-apoptotic gene expression (BID, BIM, BAD, BAX) [2]: upregulated expression of the gene encoding BH3-only protein BID

O=C([O-])CCCCCCC(=O)[O-].[Ag+].[Ag+].c1cnc2c(c1)ccc1cccnc12.c1cnc2c(c1)ccc1cccnc12.c1cnc2c(c1)ccc1cccnc12 [Complex 4, [Ag2(oda)(phen)3]]
Cytotoxic activity IC25 ± SD (MCF-12A cells; [5]): 4.91 ± 0.14 µM | IC25 calculated per one metal centre (MCF-12A cells; [3]): 9.82 ± 0.28 µM | Caspase gene expression (caspase-9, -8, -3) [1]: expression of caspase-9 and caspase-3 | Pro-apoptotic gene expression (BID, BIM, BAD, BAX) [1]: significantly elevated BIM and BAD expression | Caspase gene expression (caspase-9, -8, -3) [2]: expression of caspase-9 and caspase-3

O=C([O-])CCCCCCCCCC(=O)[O-].[Ag+].[Ag+].c1cnc2c(c1)ccc1cccnc12.c1cnc2c(c1)ccc1cccnc12.c1cnc2c(c1)ccc1cccnc12 [Complex 5, [Ag2(udda)(phen)3]]
Cytotoxic activity IC25 ± SD (MCF-12A cells; [5]): 5.52 ± 0.51 µM | IC25 calculated per one metal centre (MCF-12A cells; [3]): 11.04 ± 1.0 µM | Caspase gene expression (caspase-9, -8, -3) [1]: expression of caspase-9 and caspase-3 | Pro-apoptotic gene expression (BID, BIM, BAD, BAX) [1]: significantly elevated BIM and BAD expression | Caspase gene expression (caspase-9, -8, -3) [2]: expression of caspase-9 and caspase-3

c1cnc2c(c1)ccc1cccnc12 [Phen, 1,10-Phenanthroline]
IC50 (MCF-12A cells; Homo sapiens, MCF-12A, 24 h, read-out: IC50 calculated per one metal centre): 20.9 ± 1.96 µM | Cytotoxic activity IC25 ± SD (MCF-12A cells; [5]): 11.14 ± 4.39 µM | IC25 calculated per one metal centre (MCF-12A cells; [3]): 11.14 ± 4.39 µM | Caspase gene expression (caspase-9, -8, -3) [1]: all caspases seen to be activated | Pro-apoptotic gene expression (BID, BIM, BAD, BAX) [1]: pro-apoptotic BIM and BAD were upregulated | Caspase gene expression (caspase-9, -8, -3) [2]: all caspases seen to be activated | Pro-apoptotic gene expression (BID, BIM, BAD, BAX) [2]: pro-apoptotic BIM and BAD were upregulated

{[Mn2(oda)3(phen)4]^2−[Mn2(oda)(phen)4 (H2O)2]^2+} [Complex 7]
Decrease in activity towards MCF-12A cells relative to MCF-7 cells (selectivity) (MCF-12A cells; listed as 7): almost tenfold reduction in cytotoxicity | Decrease in activity towards MCF-12A cells relative to MCF-7 cells (selectivity) (MCF-12A cells; listed as complex 7): almost tenfold decrease in activity | Cytotoxic activity IC25 ± SD (MCF-12A cells; [5]): 0.38 ± 0.39 µM | IC50 (MCF-12A cells; MCF-12A, 24-h exposure, 50% reduction in metabolic activity, mean ± SD (N = 3), read-out: Cytotoxic activity IC50 ± SD): 26.1 ± 7.7 µM | IC25 calculated per one metal centre (MCF-12A cells; [3]): 1.52 ± 1.56 µM | IC50 (MCF-12A cells; [4]): 104 ± 30.8 µM | Caspase gene expression (caspase-9, -8, -3) [1]: Initiator caspase 9 was expressed by MCF-12A cells, but executioner caspase-3 was not found to be expressed | Pro-apoptotic gene expression (BID, BIM, BAD, BAX) [1]: only shown to express BIM | Caspase gene expression (caspase-9, -8, -3) [2]: No caspase activity was observed | Pro-apoptotic gene expression (BID, BIM, BAD, BAX) [2]: expression of both BID and BIM
